Earlier results, collected in patent US20180203025A1, “HDL THERAPY MARKERS” (Cerenis Therapeutics Holding SA, priority 2014, published 2018).
Read-outs that look alike come from different tables or passages of the source.

Key:
[1] = compared to atorvastatin; cited from earlier work
[2] = associated to statin; cited from earlier work
[3] = ACS patients, cited from earlier work
[4] = added to 80 mg atorvastatin, cited from earlier work

In the case of COc1cc(F)c(C(C)C)cc1-c1ccc(C(F)(F)F)cc1CN1C(=O)O[C@H](c2cc(C(F)(F)F)cc(C(F)(F)F)c2)[C@@H]1C [anacetrapib], the HDL-cholesterol increase [1] is listed as “about 140%”, the LDL-cholesterol lowering [1] is listed as 40% and the “further decrease of LDL-cholesterol” value [2] is listed as “about 40%”.
For CCC(CC)CC1(C(=O)Nc2ccccc2SC(=O)C(C)C)CCCCC1 [dalcetrapib], the ApoA-I increase [3] is listed as 18%, the HDL-cholesterol increase [3] is listed as “about 30%” and the LDL-cholesterol [3] is listed as “no changes in LDL-cholesterol”. For the same compound, the “clinical benefit compared to placebo” value ([3]; interim analysis) was “no benefit” and the LDL-cholesterol [2] was “remains unchanged”.
For Cc1cc(C)c2c(c1)[C@@H](N(Cc1cc(C(F)(F)F)cc(C(F)(F)F)c1)c1nnn(C)n1)CCCN2C[C@H]1CC[C@H](C(=O)O)CC1 [evacetrapib], the “further decrease of LDL-cholesterol” value [2] is listed as “about 40%”.
In the case of CCOC(=O)N1c2ccc(C(F)(F)F)cc2[C@@H](N(Cc2cc(C(F)(F)F)cc(C(F)(F)F)c2)C(=O)OC)C[C@H]1CC [torcetrapib], the HDL-cholesterol increase ([4]; compared to Atorvastatin alone) is listed as 80%, the LDL-cholesterol decrease ([4]; compared to Atorvastatin alone) is listed as 25% and the mortality and morbidity ([4]; 15 067 patients) is listed as “increase of the mortality and morbidity”. The “further decrease of LDL-cholesterol” value [2] was “about 40%”.
